Results on one compound are retold here after patent US8354547B2, “4β-amino podophyllotoxin congeners as anti tumour antibiotics a process for the preparation thereof” (Council of Scientific & Industrial Research, priority 2008, dated 2013).

The structures appear in SMILES notation.

Assay [1] relates to Colon (SW-620) cancer cell line. The experiment in a line: SRB in vitro cytotoxicity assay, Colon SW-620. Type of assay: cell-based, human. To be noted: concentration 1 × 10^−5 (μM/mL). On the procedure: (§1) Single cell suspension of the tumor cells grown in tissue culture were made, cells counted and cell count adjusted to 1×10^5 to 5×10^5 Ninetysix (96) well plates were seeded with this cell suspension, each well receiving 100 μl of it. The plate was then be incubated at 37° C. temperature in CO2 incubator for 24 hours. Drugs were added at appropriate concentrations after 24-hour, incubation followed by further incubation for 48 hours. Experiment was terminated by gently layering the cells in the wells with 30% TCA and plates were kept in refrigerator for 1 hour following which they were washed thoroughly with tap water, dried attained with 0.4% SRB in 1% acetic aid and finally, the bound SRB eluted with 10 mM tris. Absorbance was read at 540 nm, in the microtitre-plate reader. Optical density of drug-treated cells was compared with that of control cells and cell inhibition was calculated as percent values. […]

Assay [2] deals with Neuroblastoma (IMR-32) cancer cell line. The experiment in a line: SRB in vitro cytotoxicity assay, Neuroblastoma IMR-32. The class given is cell-based, human. To be noted: concentration 1 × 10^−5 (μM/mL). On the procedure:
as §1

Assay [3] deals with Colon (Colo-205) cancer cell line. The experiment in a line: SRB in vitro cytotoxicity assay, Colon Colo-205. Type of assay: cell-based, human. To be noted: concentration 1 × 10^−5 (μM/mL). Here is the method: as §1
The subject of the next assay is Lukemia (HL-60) cells. The experiment in a line: DNA cell cycle analysis by flow cytometry. Type of assay: cell-based. To be noted: 0.5, 1, 5, and 10 μM, 24 hr (FIG. 5). Here is the method:
(§2) Compound 3d evaluated for DNA laddering assay.
Effect of compound 3d on DNA content by cell cycle phase distribution was assessed using HL-60 cells by incubating the HL-60 cells (1×10^6) 1 ml phosphate buffer saline were treated with 3d (0.5, 1, 5, 10 μM) for 24 hr. The cells were then washed twice with ice-cold PBS, harvested, fixed with ice cold PBS in 70% ethanol, and stored at −20° C. for 30 minutes. After Fixation, these cells were incubated with RNase A (0.1 mg/ml) at 37° C. for 30 min, stained with propidium iodide (50 μg/ml) for 30 min on ice in dark, and then measured for DNA content using BD-LSR flow cytometer (Becton Dickinson, USA) equipped with electronic doublet discrimination capability using blue (488 nm) excitation from orgon laser. Data were collected in list mode on 10,000 events for FL2-A vs. FL2-W (FIG. 5).

The test system of assay [4] is Liver (HEP-2) cancer cell line. The experiment in a line: SRB in vitro cytotoxicity assay, Liver HEP-2. Type of assay: cell-based, human. To be noted: concentration 1 × 10^−5 (μM/mL). On the procedure: as §1
Assay [5] relates to Breast (MCF-7) cancer cell line. The experiment in a line: SRB in vitro cytotoxicity assay, Breast MCF-7. The class given is cell-based, human. To be noted: concentration 1 × 10^−5 (μM/mL). On the procedure: as §1
Another assay has as its system leukemia (MOLT-4) cells. The experiment in a line: DNA laddering (fragmentation) assay by gel electrophoresis. Type of assay: cell-based. As to conditions: 0.5, 1, 5, and 10 μM, 24 hr incubation (FIG. 4). On the procedure: as §2
DNA fragmentation was determined by electrophoresis of extracted genomic DNA form leukemia cell (MOLT4). Briefly, exponentially growing cells (2×10^6 cells/mL) in 6 well plate were treated with compound 3d in 0.5, 1, 5 and 10 μM concentrations for 24 hrs. Cells were harvested, washed with PBS, pellets were dissolved in lyris buffer (10 mM EDTA, 50 mM Tris pH 8.0, 0.5% w/v SDS and proteinase K (0.5 mg/mL) and incubated at 50° C. for 1 hr. Finally the DNA obtained was heated rapidly to 70° C., supplemented with loading dye and immediately resolved on to 1.5% agarose gel at 50 V for 2-3 hrs (FIG. 4).

Assay [6] deals with CNS (SK-N-SH) cancer cell line. The experiment in a line: SRB in vitro cytotoxicity assay, CNS SK-N-SH. Type of assay: cell-based, human. To be noted: concentration 1 × 10^−5 (μM/mL). On the procedure:
as §1

The target of another assay is T1, Topoisomerase-I (Homo sapiens, UniProt P11387).
T1 sequence (P11387 1-765): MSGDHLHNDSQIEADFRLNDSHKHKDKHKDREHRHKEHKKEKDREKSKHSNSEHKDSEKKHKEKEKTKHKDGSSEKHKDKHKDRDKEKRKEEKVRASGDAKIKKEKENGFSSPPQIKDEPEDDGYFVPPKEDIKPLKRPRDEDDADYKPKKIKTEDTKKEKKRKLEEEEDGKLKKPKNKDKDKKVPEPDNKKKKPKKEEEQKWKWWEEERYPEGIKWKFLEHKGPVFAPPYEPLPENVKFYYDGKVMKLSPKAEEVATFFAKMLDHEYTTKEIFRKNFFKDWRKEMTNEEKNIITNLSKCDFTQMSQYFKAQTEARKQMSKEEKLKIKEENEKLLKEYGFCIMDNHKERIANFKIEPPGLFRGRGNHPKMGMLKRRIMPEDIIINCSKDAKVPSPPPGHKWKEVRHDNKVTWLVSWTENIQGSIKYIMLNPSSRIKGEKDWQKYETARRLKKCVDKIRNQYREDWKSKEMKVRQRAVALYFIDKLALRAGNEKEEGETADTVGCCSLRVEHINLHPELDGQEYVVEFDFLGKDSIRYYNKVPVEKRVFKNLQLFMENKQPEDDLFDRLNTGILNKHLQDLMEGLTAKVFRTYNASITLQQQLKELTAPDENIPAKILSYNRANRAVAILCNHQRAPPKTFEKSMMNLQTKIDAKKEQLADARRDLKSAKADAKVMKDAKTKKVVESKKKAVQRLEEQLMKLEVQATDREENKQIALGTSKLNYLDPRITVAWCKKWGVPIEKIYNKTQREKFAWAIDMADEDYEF
Briefly: Topoisomerase-I relaxation assay. To be noted: at 100 μM (FIG. 2). The class given is biochemical. Here is the method:
Apart from this, some of these analogues were evaluated for Topoisomerase-I relaxation, Topoisomerase-II inhibition, DNA laddering assay and DNA cell cycle analysis. Compounds 3c, 4c, 3d and 4d were analyzed for topoisomerase-I assay at 100 μM (FIG. 2) only compound 3d was found active and rest were not active. Compounds 3d, 4d and 4c were analyzed for topoisomerase inhibition assay.
Reaction was assembled in micro centrifuge tube that contains super coiled DNA 250 ng/μl & Topoisomerase-I (4 units) in assay buffer (10 mM Tris-HCl, pH 7.9, 0.15 M NaCl, 0.1% BSA, and 5.0 mM (beta)-mercaptoethanol). In each reaction 2 μl sample was added then volume was made up to 20 μl with water and then incubated at 37° C. Reaction was terminated by addition of 2 μl of 10% SDS. Each sample tube was treated with proteinase K and extracted once with chloroform: isoamyl alcohol. Products were resolved by 0.8% agarose gel electrophoresis in TAE buffer (40 mM tris-acetate, pH 8.0, and 1 mM EDTA) and stained with 0.5 μg/ml ethedium bromide (EtBr).

Consider `COc1cc([C@@H]2c3cc4c(cc3[C@@H](Nc3cc5c6ccccc6ccc5c5ccccc35)[C@@H]3COC(=O)[C@H]23)OCO4)cc(OC)c1OC` [Compound 3d, 4β-(6″-Chrycenylamino)-4-desoxypodophyllotoxin], for which the “Growth Inhibition(%) Colon SW-620” value in assay [1] is given as 14%. In addition, the “Growth Inhibition(%) Neuroblastma IMR-32” value in assay [2] is 1%. Also, the “Growth Inhibition(%) Colon Colo-205” value in assay [3] is listed as 51%. In the assay on Lukemia (HL-60) cells, the “cell cycle phase block” value was “blocks the G1 Phase” and the “sub G1 cell population (apoptosis)” value is on record as “increase”. In addition, the “Growth Inhibition(%) Liver HEP-2” value in [4] was determined as 66%. In assay [5], the “Growth Inhibition(%) Breast MCF-7” value came to 0%. Moreover, the DNA fragmentation result in the assay on leukemia (MOLT-4) cells is “induced DNA fragmentation”. Further, the “Growth Inhibition(%) CNS SK-N-SH” value in assay [6] is reported as 73%. Besides, the “activity in topoisomerase-I assay” value on Topoisomerase-I was “active”.
